Where a name gives a salt, the structure may show the parent alone. Some results are limits rather than exact numbers.

The subject of one assay is VSV-g pseudotyped HIV vector that expresses luciferase (PHIV). Description: microbe, parasite or virus in culture. The assay is classed as cell-based. Conditions: Human immunodeficiency virus 1, HEK-293T, 48 h, read-out: PHIV IC50.
`C[C@H]1CCN(Cc2cccnc2)[C@@H]2Cn3cc(C(=O)NCc4ccc(F)cc4F)c(=O)c(O)c3C(=O)N12` [Example Z-46, (4S,12aS)—N-[(2,4-Difluorophenyl)methyl]-7-hydroxy-4-methyl-6,8-dioxo-1-(3-pyridinylmethyl)-1,2,3,4,6,8,12,12a-octahydropyrido[1′,2′:4,5]pyrazino[1,2-a]-pyrimidine-9-carboxamide]: the IC50 was less than 10 nM.

Consider `CSCC[C@H]1CO[C@@H]2Cn3cc(C(=O)NCc4ccc(F)cc4F)c(=O)c(O)c3C(=O)N12` [Example Z-26, (2S,11aR)—N-[(2,4-Difluorophenyl)methyl]-6-hydroxy-3-[2-(methylthio)ethyl]-5,7-dioxo-2,3,5,7,11,11a-hexahydro[1,3]oxazolo[3,2-a]pyrido[1,2-d]pyrazine-8-carboxamide], for which the IC50 is less than 10 nM.

As for `O=C(NCc1ccc(F)cc1F)c1cn2c(c(O)c1=O)C(=O)N1[C@@H](C2)OC[C@@H]2C[C@@H](c3ccccc3)CC[C@@H]21` (racemic) [Example Z-37, racemic-(3S,4aR,6aR,14aS)—N-[(2,4-Difluorophenyl)methyl]-12-hydroxy-11,13-dioxo-3-phenyl-1,3,4,4a,5,6a,7,11,13,14a-decahydro-2H-pyrido[1′,2′:4,5]pyrazino[1,2-a][3,1]benzoxazine-10-carboxamide], the IC50 is less than 10 nM.

Take `CC(C)C[C@@H]1CO[C@H]2Cn3cc(C(=O)NCc4ccc(F)cc4F)c(=O)c(O)c3C(=O)N12` [Example Z-17, (3R,11aS)—N-[(2,4-Difluorophenyl)methyl]-6-hydroxy-3-(2-methylpropyl)-5,7-dioxo-2,3,5,7,11,11a-hexahydro[1,3]oxazolo[3,2-a]pyrido[1,2-d]pyrazine-8-carboxamide]: the IC50 was less than 10 nM.

Turning to `COC[C@H]1[C@H](c2ccccc2)OC2Cn3cc(C(=O)NCc4ccc(F)cc4F)c(=O)c(O)c3C(=O)N21` (stereo partly shown) [Example Z-19], the IC50 was less than 10 nM.

With `CC[C@@H]1CO[C@H]2Cn3cc(C(=O)NCc4ccc(F)cc4F)c(=O)c(O)c3C(=O)N12` [Example Z-50, (3R,11aS)—N-[(2,4-Difluorophenyl)methyl]-3-ethyl-6-hydroxy-5,7-dioxo-2,3,5,7,11,11a-hexahydro[1,3]oxazolo[3,2-a]pyrido[1,2-d]pyrazine-8-carboxamide], the IC50 is less than 10 nM.

Consider `O=C(NCc1ccc(F)cc1F)c1cn2c(c(O)c1=O)C(=O)N1[C@@H](CO)CO[C@@H]1C2` [Example Z-14, (3S,11aR)—N-[(2,4-Difluorophenyl)methyl]-6-hydroxy-3-(hydroxymethyl)-5,7-dioxo-2,3,5,7,11,11a-hexahydro[1,3]oxazolo[3,2-a]pyrido[1,2-d]pyrazine-8-carboxamide], for which the IC50 was in the range of 10 to 100 nM.

Consider `O=C(NCc1ccc(F)cc1F)c1cn2c(c(O)c1=O)C(=O)N1CC3CCCCN3[C@H]1C2` (stereo partly drawn) [Example Z-18, (3aR,14aR)—N-[(2,4-Difluorophenyl)methyl]-11-hydroxy-10,12-dioxo-1,2,3,4,5a,6,10,12,14,14a-decahydropyrido[1,2-d]pyrido[1′,2′:3,4]imidazo[1,2-d]pyrazine-9-carboxamide], for which the IC50 is less than 10 nM.

As to `O=C(NCc1ccc(F)cc1F)c1cn2c(c(O)c1=O)C(=O)N1[C@@H](Cc3c[nH]c4ccccc34)CO[C@@H]1C2` [Example Z-28, (3S,11aR)—N-[(2,4-Difluorophenyl)methyl]-6-hydroxy-3-(1H-indo-3-ylmethyl)-5,7-dioxo-2,3,5,7,11,11a-hexahydro[1,3]oxazolo[3,2-a]pyrido[1,2-d]pyrazine-8-carboxamide], the IC50 was less than 10 nM.

Regarding `O=C(NCc1ccc(F)cc1F)c1cn2c(c(O)c1=O)C(=O)N1[C@H]3CCCC[C@H]3CN(CCN3CCOCC3)[C@@H]1C2` (racemic) [Example Z-51, racemic-(4aS,6aS,14aS)—N-[(2,4-Difluorophenyl)methyl]-12-hydroxy-6-[2-(4-morpholinyl)ethyl]-11,13-dioxo-1,2,3,4,4a,5,6,6a,7,11,13,14a-dodecahydropyrido-[1′,2′:4,5]pyrazino[1,2-a]quinazoline-10-carboxamide], the IC50 was less than 10 nM.

For `O=C(NCc1ccc(F)cc1F)c1cn2c(c(O)c1=O)C(=O)N1[C@H](C2)N[C@H]2CCCC[C@@H]21` [Example Z-39, (6aR,7aS,11aS)—N-[(2,4-Difluorophenyl)methyl]-1-hydroxy-2,13-dioxo-2,6a,7,7a,8,9,10,11,11a,13-decahydro-6H-pyrido[1′,2′:4,5]pyrazino[1,2-a]benzimidazole-3-carboxamide], the IC50 is less than 10 nM.

For the compound `COCCN1CC[C@H](C)N2C(=O)c3c(O)c(=O)c(C(=O)NCc4ccc(F)cc4F)cn3C[C@@H]12` [Example Z-48, (4S,12aS)—N-[(2,4-Difluorophenyl)methyl]-7-hydroxy-4-methyl-1-[2-(methyloxy)ethyl]-6,8-dioxo-1,2,3,4,6,8,12,12a-octahydropyrido[1′,2′:4,5]pyrazino[1,2-a]pyrimidine-9-carboxamide], the IC50 is less than 10 nM.

For the compound `CC[C@H](C)[C@H]1CO[C@@H]2Cn3cc(C(=O)NCc4ccc(F)cc4F)c(=O)c(O)c3C(=O)N12` [Example Z-8, (3S,11aR)—N-[(2,4-Difluorophenyl)methyl]-6-hydroxy-3-[(1S)-1-methylpropyl]-5,7-dioxo-2,3,5,7,11,11a-hexahydro[1,3]oxazolo[3,2-a]pyrido[1,2-d]pyrazine-8-carboxamide sodium salt], the IC50 was 10 to 100 nM.

The target of another assay is HIV integrase (Human immunodeficiency virus type 1 group M subtype B (isolate HXB2) (HIV-1), UniProt P04585). As to the kind of experiment: HIV integrase inhibitory activity assay (immunoplate strand transfer, OD405). The assay is classed as biochemical.
Settings: not given
The procedure: The HIV integrase inhibitory activity was investigated based on the following assay method.
(1) Preparation of DNA Solution
By the same method as that described in Experimental Example 1 of WO 2004/024693, a substrate DNA solution (2 pmol/μl) and a target DNA solution (5 pmol/μl) were prepared. […] Each sequence of a substrate DNA and a target DNA is as described in the same Experimental Example.
(2) Measurement of Inhibition Rate (IC50 Value)
Streptavidin (manufactured by Vector Laboratories) was dissolved in a 0.1M carbonate buffer solution (composition: […] Na2CO3, 10 mM NaHCO3) to a concentration of 40 μg/ml, Each 50 μl of this solution was added to a well of an immunoplate (manufactured by NUNC), this is allowed to stand at 4° C. overnight to adsorb. Then, each well was washed with a phosphate buffer (composition: 13.7 mM NaCl, 0.27 mM KCl, 0.43 mM Na2HPO4, 0.14 mM KH2PO4) two times, and 300 μl of a phosphate buffer containing 1% skim milk to block it for 30 minutes. Further, each well was washed with a phosphate buffer two times, 50 μl of a substrate DNA solution (2 pmol/μl) was added to adsorb at room temperature for 30 minutes while shaking, and this was washed with a phosphate buffer two times and, then, distilled water once.
Then, to each well prepared as described above were added 12 μl of a buffer (composition: 150 mM MOPS (pH7.2), 75 mM MnCl2, 50 mM 2-mercaptoethanol, 25% glycerol, 500 μg/ml bovine serum albumin-fraction V), and 51 μl of a reaction solution prepared from 39 μl of distilled water. Then, 9 μl of an integrase solution (30 pmol) was added, and the mixture was mixed well. To a well as a negative control (NC) was added 9 μl of a diluting solution (composition: 20 mM MOPS (pH7.2), 400 mM potassium glutamate, 1 mM EDTA, 0.1% NP-40, 20% glycerol, 1 mM DTT, 4 M urea), and this was mixed well using a plate mixer. […]
C abs.: absorbance of well of compound
NC abs.: absorbance of NC
PC abs.: absorbance of PC
In the case of `O=C(NCc1ccc(F)cc1)c1cn2c(c(O)c1=O)C(=O)N1CCOC1C2` (stereo not shown) [Example C-2, 5-Hydroxy-4,6-dioxo-2,3,4,6,9,9a-hexahydro-1-oxa-8a,8a-diaza-cyclopenta[b]naphthalene-7 carboxylic acid 4-fluorobenzylamide], the “Integrase inhibitory activity (IC50, ng/ml)” value was 3.3 ng/mL.

The same assay, now with this note: read-out: Integrase inhibitory activity (IC50, ng/ml) (converted).
On to `CC(C)CN1CCCN2C(=O)c3c(O)c(=O)c(C(=O)NCc4ccc(F)cc4)cn3CC12` (stereo not shown) [Example F-2, 5-Hydroxy-1-isobutyl-6,10-dioxo-1,2,3,4,6,9,9a,10-octahydro-1,4a,8a-triazaanthracene-7-carboxylic acid 4-fluorobenzylamide], for which the IC50 is 8.59 nM.

As for `CC(=O)N1CCCN2C(=O)c3c(O)c(=O)c(C(=O)NCc4ccc(F)cc4)cn3CC12` (stereo not shown) [Example H-2, 1-Acetyl-5-hydroxy-6,10-dioxo-1,2,3,4,6,9,9a,10-octahydro-1,4a,8a-triaza-anthracene-7-carboxylic acid 4-fluoro-benzylamide], the IC50 is 7.47 nM.

The values are drawn from patent publication US11267823B2, “Substituted 1,2,3,3a,4,5,7,9,13,13a-decahydropyrido[1′,2′:4,5]pyrazino[1,2-a]pyrrolo[1,2-c]pyrimidines having HIV integrase inhibitory activity” (Shionogi & Co., Ltd., priority 2005, dated 2022).
